According to patent publication US20090191571A1 (priority 2005, published 2009):

Target: PrP^Sc (Mus musculus, UniProt P04925)
Sequence (P04925 23-230 limits assumed): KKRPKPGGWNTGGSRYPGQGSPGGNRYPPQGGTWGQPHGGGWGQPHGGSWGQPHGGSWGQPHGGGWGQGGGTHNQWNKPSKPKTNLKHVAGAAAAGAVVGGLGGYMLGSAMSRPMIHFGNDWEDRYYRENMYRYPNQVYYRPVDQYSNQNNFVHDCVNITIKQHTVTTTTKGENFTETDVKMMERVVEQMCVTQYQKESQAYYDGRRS

For (GGG)KKRPKPGG [SEQ ID NO:68], the “binding to PrP^Sc, Western blotting (FIG. 4, lane 5)” value was “strong binding”.
